Reference: patent US11702630B2, “In vitro methods of differentiating stem cells into neurons and neurons generated using the same” (The J. David Gladstone Institutes, a testamentary trust …, priority 2016, dated 2023)

How the values were obtained:
Assay type in all cases: cell-based, human
pluripotent stem cells [1] = assay: Wnt activation in the V2a interneuron protocol, % CHX10+ cells; details: FIG. 20A
Description: (§1) For the “D0 CHIR treated” group, the GSK3 inhibitor, 2 μM CHIR990201 was added into the V2a interneuron protocol from day 0 to day 7. For the “D-2 CHIR treated” group, pluripotent stem cells were initially seeded at a higher density (120 k cells/cm^2) in the presence of 2 μM CHIR990201 for two days. The cells were then dissociated and re-plated at 25 k/cm^2 to begin the V2a interneuron protocol. CHIR990201 was kept in the media composition from day 0 to day 7. Further culture and analysis proceeded as previously described.

pluripotent stem cells [2] = assay: Wnt activation in the V2a interneuron protocol, gene expression of cervical and thoracic markers; details: FIG. 20B
Description: Samples were lysed and RNA was extracted using the E.Z.N.A. Total RNA Kit (Omega Biotek, Norcross, Ga.). RNA (500 ng) was reverse-transcribed into cDNA using the iScript cDNA synthesis kit (BioRad, Hercules, Calif.). RT-qPCR was performed using Fast SYBR Green Master Mix (Life Technologies) and the primers listed in Table 1 below were annealed at 61° C. on the Step One Plus Real-Time PCR System (Life Technologies). Fold changes were calculated using the ΔΔCt method. For high throughput gene expression analysis, Fluidigm was used. Preamplified cDNA samples and primers were mixed with Sso Fast EvaGreen Supermix (BioRad) then loaded onto a 96.96 Dynamic Array integrated fluidic circuit (IFC) and ran on a BioMark HD system.
as §1

hPSCs [3] = assay: Flow cytometry of CHX10 at day 17 of V2a interneuron differentiation
Description: hPSCs were seeded in mTeSR supplemented with 10 μM ROCK inhibitor and dual SMAD inhibitors 0.2 μM LDN193189 and 10 μM SB431542 ([…], Cambridge, Mass.) at 5,000-100,000 cells/cm^2 onto 24-well plates coated with Matrigel. On day 3, medium was changed to mTeSR supplemented with dual SMAD inhibitors only. On day 5, the base medium was switched to neural induction medium (DMEM F:12 (Corning), N2 supplement (Life Technologies, Carlsbad, Calif.), L-Glutamine (VWR), 2 μg/ml heparin (Sigma Aldrich, St. Louis, Mo.), non-essential amino acids (VWR), penicillin-streptomycin (VWR) supplemented with fresh 0.4 μg/ml ascorbic acid (Sigma Aldrich) and 10 ng/ml brain derived neurotrophin factor (BDNF, R&D Systems, Minneapolis, Minn.)) supplemented with dual SMAD inhibitors and 10 nM-10 μM retinoic acid (Sigma Aldrich). […] Medium was changed every 2 to 3 days throughout the differentiation, with fresh supplements added each time for up to 17 days.

hPSCs [4] = assay: Total number of cells and yield of CHX10+ cells per input pluripotent cell at day 17; details: for number of viable cells per 24-well culture at day 17: 100 nM RA and 100 nM pur, FIG. 2B
Description: hPSCs were seeded in mTeSR supplemented with 10 μM ROCK inhibitor and dual SMAD inhibitors 0.2 μM LDN193189 and 10 μM SB431542 (StemGent, Cambridge, Mass.) at 5,000-100,000 cells/cm^2 onto 24-well plates coated with Matrigel. On day 3, medium was changed to mTeSR supplemented with dual SMAD inhibitors only. On day 5, the base medium was switched to neural induction medium (DMEM F:12 (Corning), N2 supplement (Life Technologies, Carlsbad, Calif.), L-Glutamine (VWR), 2 μg/ml heparin (Sigma Aldrich, St. Louis, Mo.), non-essential amino acids (VWR), penicillin-streptomycin (VWR) supplemented with fresh 0.4 μg/ml ascorbic acid (Sigma Aldrich) and 10 ng/ml brain derived neurotrophin factor (BDNF, R&D Systems, Minneapolis, Minn.)) supplemented with dual SMAD inhibitors and 10 nM-10 μM retinoic acid (Sigma Aldrich). On day 7, dual SMAD inhibition was ceased and 10 nM-10 μM retinoic acid, 10 nM-10 μM pur (EMD Millipore, Darmstast, Germany) and 100 nM-10 μM N—[N-(3,5-Difluorophenacetyl)-L-alanyl]-S-phenylglycine t-butyl ester (DAPT) were added to the neural induction medium. Medium was changed every 2 to 3 days throughout the differentiation, with fresh supplements added each time for up to 17 days.

[5] = 2 μM CHIR added at D0, day 0 to day 7
[6] = 2 μM CHIR added at D-2 and passage with CHIR, kept to day 7

## Cc1cnc(-c2cnc(NCCNc3ccc(C#N)cn3)nc2-c2ccc(Cl)cc2Cl)[nH]1 [CHIR, 6-[[2-[[4-(2,4-Dichlorophenyl)-5-(5-methyl-1H-imidazol-2-yl)-2-pyrimidinyl]amino]ethyl]amino]-3-pyridinecarbonitrile]
Pluripotent stem cells [1]; [5]
  % of CHX10+ cells: did not decrease
Pluripotent stem cells [1]; [6]
  % of CHX10+ cells: greatly increased
Pluripotent stem cells [2]; [5]
  cervical and thoracic gene expression: slightly increased
Pluripotent stem cells [2]; [6]
  cervical and thoracic gene expression: increased

## C[C@H](NC(=O)Cc1cc(F)cc(F)c1)C(=O)NC(C(=O)OC(C)(C)C)c1ccccc1 (some centres unmarked) [DAPT]
hPSCs [3]; DAPT 5 μM from day 7, RA and pur 100 nM each, FIG. 1E
  CHX10+ population at day 17: ~15%
hPSCs [3]; DAPT 1 μm from day 7, RA and pur 100 nM each, FIG. 1E
  CHX10+ population at day 17: ~15%
hPSCs [4]; 1 μM DAPT compared with 5 μM DAPT, FIG. 2C
  increase in number of CHX10+ cells per input pluripotent cell: ~50%
hPSCs [4]; DAPT 1 μM
  number of viable cells per 24-well culture at day 17: 4.40 million cells
hPSCs [4]; DAPT 5 μM
  number of viable cells per 24-well culture at day 17: 2.85 million cells

## CC1=C(/C=C/C(C)=C/C=C/C(C)=C/C(=O)O)C(C)(C)CCC1 [RA, retinoic acid]
hPSCs [3]; RA 100 nM starting at day 5, pur 1 μM and DAPT 5 μM from day 7, FIG. 1C
  CHX10+ population at day 17: ~6%

## c1ccc2c(Oc3nc(Nc4ccc(N5CCOCC5)cc4)c4ncn(C5CCCCC5)c4n3)cccc2c1 [pur, 9-Cyclohexyl-N-[4-(4-morpholinyl)phenyl]-2-(1-naphthalenyloxy)-9H-purin-6-amine]
hPSCs [3]; pur 100 nM from day 7, 100 nM RA and 5 μM DAPT, FIG. 1D
  Chx10+ cells after 17 days of differentiation: ~30%
